For ten compounds, IC50 results are on record in US6943253B2, “6-phenylpyrrolopyrimidinedione derivatives” (Almirall Prodesfarma S.A., priority 2000, dated 2005).

For this assay, the target named is T1, cyclic GMP specific phosphodiesterase (PDE 5) (Homo sapiens, UniProt O76074).
T1 construct: isolated from human platelet lysates by ion exchange chromatography using a Mono-Q column; from tissue; host or cells: human platelets (lysate, Mono-Q ion exchange fraction)
Put plainly: PDE 5 inhibitory activity, enzyme isolated from human platelet lysates. The format is biochemical. To be noted: PDE 5 from human platelet lysates; 0.25 mM [3H]-cyclic GMP as substrate; read-out: IC50 PDE5. How it is done: The cyclic GMP specific phosphodiesterase (PDE 5) was isolated from human platelet lysates by ion exchange chromatography using a Mono-Q column. The enzyme activity was determined using 0.25 mM [3H]-cyclic GMP as substrate. The purification of the enzyme and the assessment of the PDE 5 inhibitory activity of our compounds were performed essentially as described by R. W. Gristwood et al., Br. J. Pharmacol. 1992, 105:985-991.
For `CCCn1c(=O)n(C)c(=O)c2[nH]c(-c3cc(S(=O)(=O)N4CCN(CCCO)CC4)ccc3OCC)c(Br)c21` [Example 47, 7-Bromo-6-{2-ethoxy-5-[4-(3-hydroxypropyl)piperazine-1-sulfonyl]phenyl}-3-methyl-1-propyl-1,5-dihydropyrrolo[3,2-d]pyrimidine-2,4-dione], the IC50 came to 9.2 nM.

As for `CCCOc1ccc(S(=O)(=O)N2CCN(C)CC2)cc1-c1[nH]c2c(=O)n(C)c(=O)n(CCC)c2c1Br` [Example 50, 7-Bromo-3-methyl-6-[5-(4-methylpiperazine-1-sulfonyl)-2-propoxyphenyl]-1-propyl-1,5-dihydropyrrolo[3,2-d]pyrimidine-2,4-dione], the IC50 amounted to 4.5 nM.

`CCCOc1ccc(S(=O)(=O)N2CCN(CCCO)CC2)cc1-c1[nH]c2c(=O)n(C)c(=O)n(CCC)c2c1Br` [Example 57, 7-Bromo-6-{5-[4-(3-hydroxypropyl)piperazine-1-sulfonyl]-2-propoxyphenyl}-3-methyl-1-propyl-1,5-dihydropyrrolo[3,2-d]pyrimidine-2,4-dione]: the IC50 turned out to be 4 nM.

Regarding `CCCn1c(=O)n(C)c(=O)c2[nH]c(-c3cc(S(=O)(=O)N4CCN(C)CC4)ccc3OCC)c(Cl)c21` [Example 27, 7-Chloro-6-[2-ethoxy-5-(4-methylpiperazine-1-sulfonyl)phenyl]-3-methyl-1-propyl-1,5-dihydropyrrolo[3,2-d]pyrimidine-2,4-dione], the half-maximal inhibitory concentration (IC50) worked out at 3.4 nM.

`CCCOc1ccc(S(=O)(=O)N2CCN(CCO)CC2)cc1-c1[nH]c2c(=O)n(C)c(=O)n(CCC)c2c1Cl` [Example 35, 7-Chloro-6-{5-[4-(2-hydroxyethyl)piperazine-1-sulfonyl]-2-propoxyphenyl}-3-methyl-1-propyl-1,5-dihydropyrrolo[3,2-d]pyrimidine-2,4-dione]: the IC50 is 3.4 nM.

`CCCOc1ccc(S(=O)(=O)N2CCN(CCO)CC2)cc1-c1[nH]c2c(=O)n(C)c(=O)n(CCC)c2c1Br` [Example 55, 7-Bromo-6-{5-[4-(2-hydroxyethyl)piperazine-1-sulfonyl]-2-propoxyphenyl}-3-methyl-1-propyl-1,5-dihydropyrrolo[3,2-d]pyrimidine-2,4-dione]: the IC50 amounted to 6.6 nM.

Regarding `CCCOc1ccc(S(=O)(=O)N2CCN(CC)CC2)cc1-c1cc2c([nH]1)c(=O)n(C)c(=O)n2CCC` [Example 13, 6-[5-(4-Ethylpiperazine-1-sulphonyl)-2-propoxyphenyl]-3-methyl-1-propyl-1,5-dihydropyrrolo[3,2-d]pyrimidine-2,4-dione], the IC50 stood at 8 nM.

Take `CCCOc1ccc(S(=O)(=O)N2CCN(C)CC2)cc1-c1[nH]c2c(=O)n(C)c(=O)n(CCC)c2c1Cl` [Example 33, 7-Chloro-3-methyl-6-[5-(4-methylpiperazine-1-sulfonyl)-2-propoxyphenyl]-1-propyl-1,5-dihydropyrrolo[3,2-d]pyrimidine-2,4-dione]: the IC50 was determined as 4.2 nM.

Consider `CCCOc1ccc(S(=O)(=O)N2CCN(C)CC2)cc1-c1cc2c([nH]1)c(=O)n(C)c(=O)n2CCC` [Example 12, 3-Methyl-6-[5-(4-methylpiperazine-1-sulphonyl)-2-propoxyphenyl]-1-propyl-1,5-dihydropyrrolo[3,2-d]pyrimidine-2,4-dione], for which the IC50 was 14 nM.

Take `CCCOc1ccc(S(=O)(=O)N2CCN(CC)CC2)cc1-c1[nH]c2c(=O)n(C)c(=O)n(CCC)c2c1Cl` [Example 34, 7-Chloro-6-[5-(4-ethylpiperazine-1-sulfonyl)-2-propoxyphenyl]-3-methyl-1-propyl-1,5-dihydropyrrolo[3,2-d]pyrimidine-2,4-dione]: the IC50 was determined as 3.6 nM.
